As usually defined, the inhibition is the drop in the measured response relative to a control, in per cent. Usually IC50 stands for the concentration needed to halve the response being measured.

In one assay the target is SARS-CoV-2 Mpro (Severe acute respiratory syndrome coronavirus 2, UniProt P0DTD1). The assay is classed as biochemical. Particulars: 10 μM; 1 mM DTT.
The next assay addresses SARS-CoV-2 PLpro-NAB (Severe acute respiratory syndrome coronavirus 2, UniProt P0DTD1). The experiment in a line: biochemical.
Setting [1] is: Table S1, DTT buffer, read-out: HP PLpro-NAB SARS-CoV-2 IC50 [µM] triplicates DTT BUFFER.
The mark [2] stands for this setting: Table S1, L-cysteine buffer, read-out: HP PLpro-NAB SARS-CoV-2 IC50 [µM] duplicates L-CYS BUFFER.
[3] abbreviates: read-out: HC PLpro-NAB SARS-CoV-2 inhibition [%] 20 µM triplicates DTT BUFFER.
Setting [4] is: read-out: HP PLpro-NAB SARS-CoV-2 inhibition [%] 20 µM triplicates L-CYS BUFFER.
[5] abbreviates: Table S1, 20 µM, DTT buffer, average (SD).
Setting [6] is: Table S1, 20 µM, L-cysteine buffer, average (SD).

Where a name gives a salt, the structure may show the parent alone. Read-outs that look alike come from different tables or passages of the source.

In the case of `Cc1cc(-c2ccc(/N=N/c3ccc4c(S(=O)(=O)O)cc(S(=O)(=O)O)c(N)c4c3O)c(C)c2)ccc1/N=N/c1ccc2c(S(=O)(=O)O)cc(S(=O)(=O)O)c(N)c2c1O` [Evans Blue], the “Interference inhibition [%] 20 µM based on product interference DTT BUFFER” value (“Interference inhibition [%] 20 µM based” below) (Table S1, 20 µM, DTT buffer) worked out at 6.47%.

For `N#CSc1cc(SC#N)c(N)nc1N` [PR-619], under “Table S1, 20 µM, DTT buffer”, the “Interference inhibition [%] 20 µM based” value is reported as -14.28%. For the same compound, at SARS-CoV-2 Mpro, the “Inhibition of Mpro” value was “inhibition of both proteases from SARS-CoV-2”.

As to `COCCn1c2c([n+](Cc3cnccn3)c1C)C(=O)c1ccccc1C2=O` [YM-155], the “Interference inhibition [%] 20 µM based” value (Table S1, 20 µM, DTT buffer) is reported as -0.69%.

For the compound `CC1(C)CCC2=C(O1)c1ccccc1C(=O)C2=O` [Beta-Lapachone], the “Interference inhibition [%] 20 µM based” value (Table S1, 20 µM, DTT buffer) amounted to 13.40%.

For the compound `O=C(Nc1ccccc1-c1cn2c(CN3CCNCC3)csc2n1)c1cnc2ccccc2n1` [SRT 1720], the “Interference inhibition [%] 20 µM based” value (Table S1, 20 µM, DTT buffer) is reported as 22.23%.

`C[n+]1c2cc(N)ccc2cc2ccc(N)cc21.[Cl-]` [Acriflavinium Hydrochloride]: the “Interference inhibition [%] 20 µM based” value (Table S1, 20 µM, DTT buffer) was -17.48%.

On to Bacitracin [Bacitracin (Zinc)], for which the “Interference inhibition [%] 20 µM based” value (Table S1, 20 µM, DTT buffer) was -1.67%.

`O=C(O)c1c(Cl)c(Cl)c(Cl)c(Cl)c1-c1c2cc(I)c(=O)c(I)c-2oc2c(I)c(O)c(I)cc12` [Rose Bengal Sodium]: the inhibition at 20 µM was 107% on SARS-CoV-2 PLpro-NAB (Table S1, 20 µM, DTT buffer, average (SD), read-out: HC PLpro-NAB SARS-CoV-2 inhibition [%] 20 µM triplicates DTT BUFFER) and -32.4% on SARS-CoV-2 PLpro-NAB (Table S1, 20 µM, L-cysteine buffer, average (SD), read-out: HP PLpro-NAB SARS-CoV-2 inhibition [%] 20 µM triplicates L-CYS BUFFER). For the same compound, the IC50 at SARS-CoV-2 PLpro-NAB (setting [1]) and on SARS-CoV-2 PLpro-NAB (setting [2]) was over 20 µM in each case. Also, the “Interference inhibition [%] 20 µM based” value (Table S1, 20 µM, DTT buffer) is recorded as 12.07%.

In the case of `CC1=CC(=O)c2ccccc2C1=O` [Menadione], the “Interference inhibition [%] 20 µM based” value is reported as -9.41%. Also, the inhibition at 20 µM at SARS-CoV-2 PLpro-NAB (setting [3]) worked out at 115%. For the same compound, the inhibition at 20 µM on SARS-CoV-2 PLpro-NAB (setting [4]) is -45.7%.

For the compound `Nc1ccc(O)c2ncccc12` [PD119507], where the note is “Table S1, 20 µM, DTT buffer”, the “Interference inhibition [%] 20 µM based” value was 3.43%.

Take `COc1cccc2c(NCc3ccccc3)nc(-n3c(N)nc4ccccc43)nc12` [ML240]: the “Interference inhibition [%] 20 µM based” value (Table S1, 20 µM, DTT buffer) stood at 16.72%.

Regarding Cyanocobalamin, the “HC PLpro-NAB SARS-CoV-2 inhibition [%] 20 µM triplicates DTT BUFFER” value on SARS-CoV-2 PLpro-NAB (setting [5]) is 141.27 (3.32) %. Further, the “HP PLpro-NAB SARS-CoV-2 inhibition [%] 20 µM triplicates L-CYS BUFFER” value on SARS-CoV-2 PLpro-NAB (setting [6]) is recorded as 32.29 (7.95) %. The IC50 on SARS-CoV-2 PLpro-NAB (setting [1]) is 2.9 µM; on SARS-CoV-2 PLpro-NAB (setting [2]) it was over 20 µM. Also, under “Table S1, 20 µM, DTT buffer”, the “Interference inhibition [%] 20 µM based” value worked out at 4.81%.

As for Ryuvidine, where the note is “Table S1, 20 µM, DTT buffer”, the “Interference inhibition [%] 20 µM based” value is given as -2.15%.

For SF1670, the “Interference inhibition [%] 20 µM based” value (Table S1, 20 µM, DTT buffer) turned out to be 9.17%.

As to `CC[N+](C)(CC)CCC[n+]1c(-c2ccccc2)c2cc(N)ccc2c2ccc(N)cc21.[I-].[I-]` [Propidium-Iodide], the “Interference inhibition [%] 20 µM based” value (Table S1, 20 µM, DTT buffer) is 0.27%.

Consider `CCOC(=O)C1=C(C)N=c2sc(=Cc3ccc(OCC(=O)O)cc3)c(=O)n2C1c1ccc(SC)cc1` (stereo not shown) [ML120], for which the “Interference inhibition [%] 20 µM based” value (Table S1, 20 µM, DTT buffer) stood at 3.32%.

Take `Cc1nc2c(=O)n(C)c(=O)nc-2n(C)n1` [3-Methyl Toxoflavin]: the “Interference inhibition [%] 20 µM based” value (Table S1, 20 µM, DTT buffer) was determined as 10.44%.

In the case of Walrycin B, the “Interference inhibition [%] 20 µM based” value (Table S1, 20 µM, DTT buffer, listed as Walrycin B (EOS)) turned out to be 8.01% and the “Interference inhibition [%] 20 µM based” value (Table S1, 20 µM, DTT buffer, listed as Walrycin B (FhG)) stood at 4.84%.

With `CC(C)Nc1cccnc1N1CCN(C(=O)c2cc3cc(NS(C)(=O)=O)ccc3[nH]2)CC1` [Delavirdine (mesylate), Delavirdine], the “Interference inhibition [%] 20 µM based” value is given as -20.91%. Further, the inhibition at 20 µM at SARS-CoV-2 PLpro-NAB (setting [3]) worked out at 52.2%. Moreover, the inhibition at 20 µM on SARS-CoV-2 PLpro-NAB (setting [4]) is -69.3%.

Turning to `Cc1cccc2c3c(ccc12)C1=C(C(=O)C3=O)[C@@H](C)CO1` [Dihydrotanshinone I], where the note is “Table S1, 20 µM, DTT buffer”, the “Interference inhibition [%] 20 µM based” value is -55.01%.

Turning to `O=C1C(Cl)=C(NCCN2CCOCC2)C(=O)c2ncccc21` [NSC-663284 (FhG)], the “HC PLpro-NAB SARS-CoV-2 inhibition [%] 20 µM triplicates DTT BUFFER” value on SARS-CoV-2 PLpro-NAB (setting [5]) is on record as 150.90 (0.34) %; on SARS-CoV-2 PLpro-NAB (Table S1, 20 µM, DTT buffer, average (SD), listed as NSC 663284 (EOS)), 168.59 (3.49) %. Further, the “HP PLpro-NAB SARS-CoV-2 inhibition [%] 20 µM triplicates L-CYS BUFFER” value was 7.56 (11.27) % at SARS-CoV-2 PLpro-NAB (setting [6]) and -38.39 (8.32) % at SARS-CoV-2 PLpro-NAB (Table S1, 20 µM, L-cysteine buffer, average (SD), listed as NSC 663284 (EOS)). Also, the IC50 on SARS-CoV-2 PLpro-NAB (Table S1, DTT buffer, listed as NSC 663284 (EOS), read-out: HP PLpro-NAB SARS-CoV-2 IC50 [µM] triplicates DTT BUFFER) was 2.15 µM; at SARS-CoV-2 PLpro-NAB (setting [1]), 0.22 µM; on SARS-CoV-2 PLpro-NAB (setting [2]) it was over 20 µM. Besides, the “Interference inhibition [%] 20 µM based” value runs as follows: (Table S1, 20 µM, DTT buffer) -0.99%; (Table S1, 20 µM, DTT buffer, listed as NSC 663284 (EOS)) 14.95%.

As for Ro-08-2750, the “Interference inhibition [%] 20 µM based” value (Table S1, 20 µM, DTT buffer) turned out to be 0.17%.

With `O=c1ccc2[n+]([O-])c3ccc(O)cc3oc-2c1` [Resazurin (sodium salt), Resazurin], the values for the inhibition at 20 µM on SARS-CoV-2 PLpro-NAB (setting [3]) and on SARS-CoV-2 PLpro-NAB (setting [4]) were 72.9% and -36.5%, respectively. Further, the “Interference inhibition [%] 20 µM based” value (Table S1, 20 µM, DTT buffer) turned out to be 11.91%.

Consider `CN(C)CCNc1nc2cc(O)ccc2c2c1C(=O)c1ccccc1-2.Cl.Cl` [TAS-103 (dihydrochloride)], for which, where the note is “Table S1, 20 µM, DTT buffer”, the “Interference inhibition [%] 20 µM based” value is 1.87%.

With `C[C@H]1COC2=C1C(=O)C(=O)c1c2ccc2c1CCCC2(C)C` [Cryptotanshinone], the “Interference inhibition [%] 20 µM based” value (Table S1, 20 µM, DTT buffer) was 3.37%.

With `Cn1cccc1/C=C1\C(=O)NC(=O)c2ccccc21` [BYK-204165], under “Table S1, 20 µM, DTT buffer”, the “Interference inhibition [%] 20 µM based” value was -5.54%.

In the case of `Oc1c(Cl)cc(Cl)c(Cl)c1Cc1c(O)c(Cl)cc(Cl)c1Cl` [Hexachlorophene], the “Interference inhibition [%] 20 µM based” value (Table S1, 20 µM, DTT buffer) is 15.14%.

In the case of `O=C1C(=O)c2ccccc2-c2ccccc21` [9,10-Phenanthrenequinone], for the setting “Table S1, 20 µM, DTT buffer”, the “Interference inhibition [%] 20 µM based” value is given as -2.46%.

Regarding `CC1(C)C(=O)N=C2C1=C(O)C(=O)c1ccccc12` [BVT-948], the “Interference inhibition [%] 20 µM based” value (Table S1, 20 µM, DTT buffer) is on record as -137.72%.

With `Cc1cc(-c2ccc(/C=C3/SC(=Nc4ccc(Cl)c(C(=O)O)c4)NC3=O)o2)c([N+](=O)[O-])cc1C` [PT 1], the “Interference inhibition [%] 20 µM based” value (Table S1, 20 µM, DTT buffer) is 9.93%.

Take `CC[n+]1c(-c2ccccc2)c2cc(N)ccc2c2ccc(N)cc21` [Homidium Bromide]: where the note is “Table S1, 20 µM, DTT buffer”, the “Interference inhibition [%] 20 µM based” value is recorded as 1.40%.

Consider `Cc1c(S(=O)(=O)O)oc2c1C(=O)C(=O)c1c-2ccc2c1CCCC2(C)C` [Sodium-Tanshinone-ii-A-Sulfonate], for which, on SARS-CoV-2 PLpro-NAB (setting [4]), the inhibition at 20 µM was -51.9%. The “Interference inhibition [%] 20 µM based” value (Table S1, 20 µM, DTT buffer) was -7.60%.

As to `O=C1C=CC(=O)c2c(O)cccc21` [Juglone], the “Interference inhibition [%] 20 µM based” value (Table S1, 20 µM, DTT buffer) stood at 12.84%.

With Chicago-Sky-Blue-6b, the “Interference inhibition [%] 20 µM based” value (Table S1, 20 µM, DTT buffer) is reported as -5.59%.

On to `NC(Cc1cc(O)c(O)cc1O)C(=O)O` (racemic) [6-Hydroxy-DL-DOPA], for which, for the setting “Table S1, 20 µM, DTT buffer”, the “Interference inhibition [%] 20 µM based” value stood at 14.95%.

With `CC1(C)CCC2=C(O1)C(=O)c1ccccc1C2=O` [Alpha Lapachone], under “Table S1, 20 µM, DTT buffer”, the “Interference inhibition [%] 20 µM based” value is reported as -0.29%.

For the origin of these results see publication PMC11729419, “Thiol-Reactive or Redox-Active: Revising a Repurposing Screen Led to a New Invalidation Pipeline and Identified a True Noncovalent Inhibitor Against Papain-like Protease from SARS-CoV-2” (ACS Pharmacology & Translational Science, 2024).
